Source: ChEMBL document CHEMBL1131315, “Synthesis and anticonvulsant activity of 2(3H)-benzoxazolone and 2(3H)-benzothiazolone derivatives” (J Med Chem, 1998)

What was measured:
[1] = target: Sigma non-opioid intracellular receptor 1 (Homo sapiens) (UniProt Q99720); assay: Ratio between the Ki(nM)values of sigma-2 and sigma-1; assay type: functional; conditions: Cavia porcellus
[2] = tested on: Mus musculus; assay: The compound was tested for anticonvulsant activity in Maximal electroshock seizure test (MES) for 4 hr in mice(ip); no activity or toxicity at 300 mg/kg; assay type: functional, organism-based; design: dose 300 mg/kg
[3] = tested on: Mus musculus; assay: The compound was determined for the dose (mg/kg) by rotarod test at the time of peak neurotoxic effect in mice on ip administration; assay type: functional
[4] = tested on: Mus musculus; assay: The compound was tested for anticonvulsant activity in subcutaneous pentylenetetrazole seizure test (sc Met) for 30 min in mice; no activity or toxicity at 300 mg/kg; assay type: functional, organism-based; design: dose 300 mg/kg
[5] = target: Sigma 2 receptor; assay: Affinity on sigma 2 receptor using [3H]- DTG as radioligand
[6] = tested on: Rattus norvegicus; assay: The compound was tested per os dose of 30 mg/kg for 4 hours for maximal electroshock test (MES) on rats; MES= 0/4; assay type: functional
[7] = The compound was tested for neurologic toxicity (rotarod) test for 4 hr in mice; no activity or toxicity at 300 mg/kg; assay type: organism-based; design: dose 300 mg/kg; conditions: mouse, in vivo
[8] = tested on: Rattus norvegicus; assay: The compound was tested per os dose of 30 mg/kg for 0.25 hours for rotarod toxicity; 0/4; assay type: functional
[9] = tested on: Mus musculus; assay: The compound was tested to inhibit 50% of induced maximal electroshock seizure in mice on ip administration; assay type: functional
[10] = tested on: Rattus norvegicus; assay: The compound was tested per os dose of 30 mg/kg for 1 hour for maximal electroshock test (MES) on rats; MES= 1/4; assay type: functional
[11] = tested on: Rattus norvegicus; assay: The compound was tested for the effective oral dose to inhibit 50% of the anticonvulsant in rats.(value in parenthesis indicate 95% confidence limits).; assay type: functional
[12] = tested on: Mus musculus; assay: The compound was tested to inhibit 50% of induced subcutaneous pentylenetetrazole seizure in mice on ip administration; assay type: functional
[13] = tested on: Rattus norvegicus; assay: The compound was tested per os dose of 30 mg/kg for 0.25 hours for maximal electroshock test on rats; MES= 3/4; assay type: functional
[14] = tested on: Rattus norvegicus; assay: The compound was tested per os dose of 30 mg/kg for 2 hours for rotarod toxicity; 0/4; assay type: functional
[15] = tested on: Mus musculus; assay: The compound was tested for anticonvulsant activity in subcutaneous pentylenetetrazole seizure test (sc Met) for 4 hr in mice; no activity or toxicity at 300 mg/kg; assay type: functional, organism-based; design: dose 300 mg/kg
[16] = tested on: Rattus norvegicus; assay: The compound was tested per os dose of 30 mg/kg for 4 hours for rotarod toxicity; 0/4; assay type: functional
[17] = The compound was tested for neurologic toxicity (rotarod) test for 30 min in mice; no activity or toxicity at 300 mg/kg; assay type: organism-based; design: dose 300 mg/kg; conditions: mouse, in vivo, 0.5 h
[18] = tested on: Rattus norvegicus; assay: The compound was tested per os dose of 30 mg/kg for 2 hours for maximal electroshock test (MES) on rats; MES= 0/4; assay type: functional
[19] = The compound was tested for time of peak effect (TPE) in hours for its toxicity in mice on ip administration.; assay type: organism-based; conditions: mouse, in vivo
[20] = tested on: Mus musculus; assay: The compound was tested for anticonvulsant activity in Maximal electroshock seizure test (MES) for 30 min in mice(ip); activity at 30 mg/kg; assay type: functional, organism-based; design: dose 30 mg/kg
[21] = tested on: Rattus norvegicus; assay: The compound was tested per os dose of 30 mg/kg for 0.5 hours for rotarod toxicity; 0/4; assay type: functional
[22] = tested on: Rattus norvegicus; assay: The compound was tested per os dose of 30 mg/kg for 0.5 hours for maximal electroshock test (MES) on rats; MES= 2/4; assay type: functional
[23] = tested on: Rattus norvegicus; assay: The compound was tested per os dose of 30 mg/kg for 1 hour for rotarod toxicity; 0/4; assay type: functional
[24] = tested on: Mus musculus; assay: Time of peak effect in mice following i.p. administration.; assay type: functional

Sequence of Sigma non-opioid intracellular receptor 1 (Homo sapiens) (Q99720 whole entry): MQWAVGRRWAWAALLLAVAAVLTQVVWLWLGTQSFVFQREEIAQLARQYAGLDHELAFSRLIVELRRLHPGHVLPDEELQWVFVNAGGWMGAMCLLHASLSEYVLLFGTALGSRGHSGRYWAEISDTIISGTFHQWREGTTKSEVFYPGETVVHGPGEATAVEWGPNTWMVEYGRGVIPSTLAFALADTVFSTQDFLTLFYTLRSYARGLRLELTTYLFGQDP

Question: Which Ratio [1] does the source give for `CCC(=O)c1ccc2c(c1)sc(=O)n2C(=O)CC` here?
Answer: Its Ratio is 11.

Question: And the MES [2]?
Answer: Its MES is “activity at 30 mg/kg”.

Question: And the TD50 [3]?
Answer: The TD50 was 145 mg/kg.

Question: And the scMet [4]?
Answer: The scMet was “No activity or toxicity at 300 mg/kg”.

Question: What about the Ki [5] of the same compound?
Answer: The Ki was 670 nM.

Question: What about the Activity [6] of the same compound?
Answer: The Activity was 0.

Question: And the Rotarod toxicity [7]?
Answer: The Rotarod toxicity was “No activity or toxicity at 300 mg/kg”.

Question: And the Activity [8]?
Answer: The Activity was 0.

Question: And the ED50 [9]?
Answer: Its ED50 is 19.4 mg/kg.

Question: And the Activity [10]?
Answer: The Activity was 1.

Question: And the ED50 [11]?
Answer: Its ED50 is 32.4 mg/kg.

Question: What about the ED50 [12] of the same compound?
Answer: The ED50 was > 300 mg/kg.

Question: What about the Activity [13] of the same compound?
Answer: Its Activity is 3.

Question: What about the Activity [14] of the same compound?
Answer: Its Activity is 0.

Question: What about the scMet [15] of the same compound?
Answer: The scMet was “No activity or toxicity at 300 mg/kg”.

Question: And the Activity [16]?
Answer: The Activity was 0.

Question: And the Rotarod toxicity [17]?
Answer: Its Rotarod toxicity is “No activity or toxicity at 300 mg/kg”.

Question: And the Activity [18]?
Answer: The Activity was 0.

Question: And the Toxicity [19]?
Answer: Its Toxicity is 0.25 h.

Question: And the MES [20]?
Answer: The MES was “activity at 30 mg/kg”.

Question: And the Activity [21]?
Answer: Its Activity is 0.

Question: And the Activity [22]?
Answer: Its Activity is 2.

Question: What about the Activity [23] of the same compound?
Answer: The Activity was 0.

Question: And the Activity [24]?
Answer: The Activity was 0.25 h.
